The target in test [1] is T1, MMP2 (Homo sapiens, UniProt P08253).
T1 sequence (P08253 110-660): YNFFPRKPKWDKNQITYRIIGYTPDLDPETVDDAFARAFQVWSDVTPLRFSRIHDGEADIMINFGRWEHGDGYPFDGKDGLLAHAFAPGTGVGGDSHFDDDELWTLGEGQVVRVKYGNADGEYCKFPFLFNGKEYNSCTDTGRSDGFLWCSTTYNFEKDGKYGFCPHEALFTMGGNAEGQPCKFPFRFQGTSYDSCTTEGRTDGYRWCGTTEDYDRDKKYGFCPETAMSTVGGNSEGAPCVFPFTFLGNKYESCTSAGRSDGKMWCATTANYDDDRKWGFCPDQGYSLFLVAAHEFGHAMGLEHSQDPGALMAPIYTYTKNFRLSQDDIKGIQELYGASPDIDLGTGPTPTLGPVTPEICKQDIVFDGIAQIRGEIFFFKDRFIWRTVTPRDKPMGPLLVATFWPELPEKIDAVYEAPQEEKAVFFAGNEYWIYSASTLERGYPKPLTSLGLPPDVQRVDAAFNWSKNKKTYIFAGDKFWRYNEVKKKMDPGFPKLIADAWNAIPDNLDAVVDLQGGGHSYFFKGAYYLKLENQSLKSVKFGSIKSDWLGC
The test is described as follows: Inhibitory effects on human MMP2 (Method 1), enzyme assay with MOCAc-Pro-Leu-Gly-Leu-A2pr(Dnp)-Ala-Arg-NH2 substrate, 96-well. The conditions noted are these: read-out: Human MMP2, IC50. Type of test: biochemical. The method, then: In a reaction solution [50 mmol/L Tris-HCl (pH 7.5), 150 mmol/L NaCl, 10 mmol/L CaCl2, 0.05% Brij L23], 100 μg/mL human recombinant MMP2 enzyme and 1 mmol/L 4-Aminophenylmercuric acetate were mixed together, and reacted at 37° C. for 60 minutes. The human MMP2 activated through the reaction was poured into a 96-well microplate to reach a final concentration of 0.7 or 7 ng/mL.

The target of the next test is human MMP12 (Homo sapiens, UniProt P39900). The test can be described thus: Inhibitory effects on human MMP12, enzyme assay. Type of test: biochemical.
human MMP12, sequence (P39900 106-470): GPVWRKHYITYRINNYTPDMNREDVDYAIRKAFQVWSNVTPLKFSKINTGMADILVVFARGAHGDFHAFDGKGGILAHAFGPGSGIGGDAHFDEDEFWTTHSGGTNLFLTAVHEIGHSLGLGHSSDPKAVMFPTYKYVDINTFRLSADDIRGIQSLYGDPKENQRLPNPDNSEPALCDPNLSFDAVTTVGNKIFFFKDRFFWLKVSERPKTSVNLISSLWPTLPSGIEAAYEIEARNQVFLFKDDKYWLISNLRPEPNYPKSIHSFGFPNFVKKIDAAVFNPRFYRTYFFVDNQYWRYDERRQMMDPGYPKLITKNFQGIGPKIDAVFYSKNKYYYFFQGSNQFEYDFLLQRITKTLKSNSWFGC
Another test addresses human MMP13 (Homo sapiens, UniProt P45452). The test is described as follows: Inhibitory effects on human MMP13, enzyme assay. The format is biochemical. As to conditions: Test Example 8. As to the method:
The human MMP13 activated through the reaction was poured into a 96-well microplate to reach a final concentration of 5 ng/mL. […] Then, MOCAc-[…] was added to reach a final concentration of 6 μmol/L, and enzymatic reaction was initiated.

The target of test [2] is T1, MMP2. The conditions noted are these: reported, see NPTL 19; cited from earlier work.
In test [3] the target is T1, MMP2. The test is described as follows: Inhibitory effects on human MMP2 (Method 2), enzyme assay with MOCAc-Pro-Leu-Gly-Leu-A2pr(Dnp)-Ala-Arg-NH2 substrate, 384-well. The format is biochemical. The conditions noted are these: Test Example No. 1-2 (Method 2, 384-well microplate).
Setting [4] is: Test Example No. 1-1 (Method 1, 96-well microplate).
Where [5] appears, read: Test Example 7, read-out: Human MMP12, IC50.

Read-outs that look alike come from different tables or passages of the source. *1 amine or outer side, *2 acyl side, *3 side chain or, on linkers, in order; H or OH if unused. Where a SMILES comes first, the peptide text is derived from it. Bridges are numbered along the chain shown (N, C = ends). [ ]: non-standard residue; d: D form. The star is where a group is joined. PhSO2(4-NHCOPh(4-CONH2)) = NC(=O)c1ccc(C(=O)Nc2ccc(S(=O)(=O)*)cc2)cc1; Phenylsulfonyl(4-anisamido) = COc1ccc(C(=O)Nc2ccc(S(=O)(=O)*)cc2)cc1; Benzoyl(4-O-C6H4-4-CONHMe) = CNC(=O)c1ccc(Oc2ccc(C(=O)*)cc2)cc1; Benzenesulfonyl(4-OPh) = O=S(=O)(c1ccc(Oc2ccccc2)cc1)*; X1 = O=C(Nc1ccc(S(=O)(=O)*)cc1)c1ccc(OC(F)(F)F)cc1; X16 = O=C(O)CCNC(=O)c1ccc(Oc2ccc(C(=O)*)cc2)cc1; Benzoyl(4-OPh) = O=C(c1ccc(Oc2ccccc2)cc1)*; d(γGlu) = O=C(O)[C@@H](CCC(=O)[*:2])N[*:1]; d(βAsp) = O=C(O)[C@@H](CC(=O)[*:2])N[*:1]; Pro(4S-NH2) = N[C@@H]1CN[C@H](C(=O)O)C1; NMeI = CC[C@H](C)[C@H](NC)C(=O)O; NMeT = CN[C@H](C(=O)O)[C@@H](C)O; NMeE = CN[C@@H](CCC(=O)O)C(=O)O; NMeN = CN[C@@H](CC(N)=O)C(=O)O; NMeL = CN[C@@H](CC(C)C)C(=O)O; β3hP = O=C(O)C[C@@H]1CCCN1; Dab = NCC[C@H](N)C(=O)O; Dap = NC[C@H](N)C(=O)O; Ahx = NCCCCCC(=O)O; Ava = NCCCCC(=O)O; GABA = NCCCC(=O)O

As for `COc1ccc(C(=O)Nc2ccc(S(=O)(=O)N[C@H](CC(=O)N[C@@H](CN)C(=O)N[C@@H](CC(C)C)C(=O)N(C)[C@@H](CCC(=O)O)C(=O)N3CCC[C@H]3CC(N)=O)C(=O)O)cc2)cc1` [Compound 691] ({Phenylsulfonyl(4-anisamido)-d(βAsp)}-[Dap]L[NMeE][β3hP]-NH2; N-terminus assumed), the IC50 came out at 0.065 nM at MMP2 [1] (setting [4]), 101 nM at human MMP12 (setting [5]) and 142 nM against human MMP13.

In the case of `CC(C)C[C@H](NC(=O)[C@@H]1C[C@H](N)CN1C(=O)CC[C@@H](NS(=O)(=O)c1ccc(NC(=O)c2ccc(C(N)=O)cc2)cc1)C(=O)O)C(=O)N(C)[C@@H](CCC(=O)O)C(=O)NCCCCC(N)=O` [Compound 1, N-[4-(4-carbamoylbenzamido)benzene-1-sulfonyl]-D-γ-glutamyl-(4S)-4-amino-L-prolyl-L-1 eucyl-N-(5-amino-5-oxopentyl)-N^2-methyl-L-α-glutamine], the IC50 was determined as 0.22 nM on MMP2 [1] (setting [4]), 253 nM on human MMP12 and 240 nM against human MMP13.

In the case of “IIe-Ser-Tyr-Gly-Asn-Asp-Ala-Leu-Met-Pro [APP-IP]”, the MMP2-inhibitory effect entry at MMP2 [2] was “selective MMP2-inhibitory effect”.

`CC[C@H](C)[C@@H](C(=O)NCCCCC(N)=O)N(C)C(=O)[C@H](CC(C)C)NC(=O)[C@@H]1C[C@H](N)CN1C(=O)CC[C@@H](NS(=O)(=O)c1ccc(NC(=O)c2ccc(C(N)=O)cc2)cc1)C(=O)O` [Compound 9]: the results for the IC50 at MMP2 [1] (setting [4]), on human MMP12 (setting [5]) and on human MMP13 were 0.29 nM, 160 nM and 250 nM, respectively.

Turning to `CC[C@H](C)[C@@H](C(=O)N1CCC[C@H]1CC(N)=O)N(C)C(=O)[C@H](CC(C)C)NC(=O)[C@H](CCN)NC(=O)CC[C@@H](NS(=O)(=O)c1ccc(NC(=O)c2ccc(OC(F)(F)F)cc2)cc1)C(=O)O` [Compound 701] ({X1-d(γGlu)}-[Dab]L[NMeI][β3hP]-NH2; N-terminus assumed), the IC50 at MMP2 [1] (setting [4]) worked out at 0.27 nM; on human MMP12 (setting [5]) it was 169 nM; on human MMP13 it was 116 nM.

Consider `CC(C)C[C@H](NC(=O)[C@@H]1C[C@H](N)CN1C(=O)CC[C@@H](NS(=O)(=O)c1ccc(NC(=O)c2ccc(C(N)=O)cc2)cc1)C(=O)O)C(=O)N(C)[C@@H](CCC(=O)O)C(=O)N[C@H](CCCNC(=N)N)C(N)=O` [Compound 29] ({PhSO2(4-NHCOPh(4-CONH2))-d(γGlu)}-[Pro(4S-NH2)]L[NMeE][dR]-NH2; C-terminus assumed), for which it took 0.14 nM to reach half-maximal inhibition at MMP2 [3] (IC50).

With `CC[C@H](C)[C@@H](C(=O)N1CCC[C@H]1CC(N)=O)N(C)C(=O)[C@@H]1CCCCNC(=O)CNC(=O)CC[C@H](NC(=O)CCCNS(=O)(=O)c2ccc(Oc3ccccc3)cc2)C(=O)N[C@@H](CC(=O)O)C(=O)N[C@@H](C)C(=O)N1` [Compound 892, [(2S,5S,8S,20S)-8-[{(2S,3S)-1-[(2S)-2-(2-amino-2-oxoethyl)pyrrolidin-1-yl]-3-methyl-1-oxopentan-2-yl}(methyl)carbamoyl]-5-methyl-3,6,14,17,21-pentaoxo-20-{4-[(4-phenoxybenzene-1-sulfonyl)amino]butanamido}-1,4,7,13,16-pentaazacyclohenicosan-2-yl]acetic acid] ({Benzenesulfonyl(4-OPh)-GABA}-EDAK[NMeI][β3hP]-NH2; linker 1-4 via G), on MMP2 [1] (Test Example No. 1-1 (Method 1, 96-well)), the IC50 was 1.7 nM.

`CC[C@H](C)[C@@H](C(=O)N1CCC[C@H]1C(N)=O)N(C)C(=O)[C@H](CC(C)C)NC(=O)[C@H](CCN)NC(=O)[C@H](CC(=O)O)NC(=O)[C@H](CC(C)C)N(C)C(=O)CCCNC(=O)c1ccc(Oc2ccccc2)cc1` [Compound 136] ({Benzoyl(4-OPh)-GABA}-[NMeL]D[Dab]L[NMeI]P-NH2; N-terminus assumed): the IC50 at MMP2 [1] (setting [4]) was 4.7 nM.

In the case of `CC(C)C[C@H](NC(=O)[C@H](CCN)NC(=O)[C@H](CC(=O)O)NC(=O)[C@H](CC(N)=O)NC(=O)CCCNC(=O)c1ccc(Oc2ccccc2)cc1)C(=O)N(C)[C@@H](CCC(=O)O)C(=O)N1CCC[C@H]1CC(N)=O` [Compound 108] ({Benzoyl(4-OPh)-GABA}-ND[Dab]L[NMeE][β3hP]-NH2), the IC50 at MMP2 [1] (setting [4]) amounted to 0.19 nM.

Turning to `CC[C@H](C)[C@@H](C(=O)N1CCC[C@H]1C(N)=O)N(C)C(=O)[C@H](CC(C)C)NC(=O)[C@H](C)NC(=O)[C@H](CC(=O)O)NC(=O)[C@H]([C@@H](C)O)N(C)C(=O)CCCNC(=O)c1ccc(Oc2ccccc2)cc1` [Compound 131] ({Benzoyl(4-OPh)-GABA}-[NMeT]DAL[NMeI]P-NH2; N-terminus assumed), on MMP2 [1] (setting [4]), the IC50 was 0.36 nM.

Take `CC(C)C[C@H](NC(=O)[C@H](CCN)NC(=O)[C@H](CC(=O)O)NC(=O)[C@H](CC(N)=O)NC(=O)CCCCNC(=O)c1ccc(Oc2ccc(C(=O)NCCC(=O)O)cc2)cc1)C(=O)N(C)[C@@H](CCC(=O)O)C(=O)N1CCC[C@H]1CC(N)=O` [Compound 183] ({X16-Ava}-ND[Dab]L[NMeE][β3hP]-NH2; N-terminus assumed): the IC50 on MMP2 [1] (setting [4]) came out at 7 nM.

`CNC(=O)c1ccc(Oc2ccc(C(=O)NCCCCCC(=O)N[C@@H](CCCCN)C(=O)N[C@@H](CC(=O)O)C(=O)N[C@@H](CCN)C(=O)N[C@@H](CC(C)C)C(=O)N(C)[C@@H](CCC(=O)O)C(=O)N3CCC[C@H]3CC(N)=O)cc2)cc1` [Compound 186] ({Benzoyl(4-O-C6H4-4-CONHMe)-Ahx}-KD[Dab]L[NMeE][β3hP]-NH2; N-terminus assumed): the IC50 at MMP2 [1] (setting [4]) was determined as 2 nM.

Regarding `CC[C@H](C)[C@@H](C(=O)N1CCC[C@H]1C(N)=O)N(C)C(=O)[C@H](CC(C)C)NC(=O)[C@H](CCN)NC(=O)[C@H](CC(=O)O)NC(=O)[C@H](CC(N)=O)N(C)C(=O)CCCNC(=O)c1ccc(Oc2ccccc2)cc1` [Compound 111] ({Benzoyl(4-OPh)-GABA}-[NMeN]D[Dab]L[NMeI]P-NH2; N-terminus assumed), on MMP2 [1] (setting [4]), the IC50 amounted to 0.96 nM.

For orientation: IC50 means the concentration needed to halve the response being measured.

Source of the values: patent US20240199692A1 (priority 2019, published 2024).
